In paper PMC9808370 (Molecular cancer therapeutics, 2023):
Where two headings read alike, the source gives them in different places.

Assays:
[1] = system: G3MB and SHHMB tumor cells; test: Single agent drug screen, statements over the panel of MB models; format: cell-based, human; conditions: most potent compounds over the MB models
HD-MB03 cells [2] = test: cells; format: cell-based, human
HD-MB03 cells [3] = conditions: HD-MB03, 1h exposure
HD-MB03 cells [4] = system: HD-MB03 cells
[5] = system: HD-MB03 intracranial xenograft; test: Pre-clinical trial, survival of intracranial tumor bearing mice; format: in vivo, mouse
[6] = system: MB002 intracranial xenograft; test: as above; format: in vivo, mouse; conditions: 10 mg/kg
[7] = Toxicity measurement in tumor bearing mice; format: in vivo, mouse
[8] = system: SJMBSHH-13-5634 intracranial PDX
[9] = adult patients, once a day dosing; cited from earlier work
[10] = system: MYC, CYCLIN E, p27KIP1 expression in HD-MB03 cells; test: Immunoblotting; format: cell-based, human; conditions: HD-MB03, 72h, 5μM ribociclib, 0.3μM JQ1, 0.5μM paxalisib

SMILES: Cc1csc(-c2nnc(Nc3ccc(Oc4ncccc4-c4ccnc(N)n4)cc3)c3ccccc23)c1 [AMG-900]
- IC50 (in words) [1]: picomolar to low nanomolar range

SMILES: CON(C)C(=O)N1N=C(c2cc(F)ccc2F)S[C@@]1(CCCN)c1ccccc1 [ARRY-520 /filanesib, filanesib]
- IC50 (in words) [1]: picomolar to low nanomolar range

SMILES: Cc1sc2c(c1C)C(c1ccc(Cl)cc1)=N[C@@H](CC(=O)OC(C)(C)C)c1nnc(C)n1-2 [JQ1]
- IC20 (HD-MB03 cells [2]; HD-MB03, anchor concentration): 132 nM
- IC50 (HD-MB03 cells [3]): > 2000 nM

SMILES: Cc1nc(Nc2n[nH]c3c2CN(C(=O)N[C@H](CN(C)C)c2ccccc2)C3(C)C)c2sccc2n1 [PF-03758309]
- IC50 (in words) [1]: picomolar to low nanomolar range

SMILES: CCc1c2c(nc3ccc(O)cc13)-c1cc3c(c(=O)n1C2)COC(=O)[C@]3(O)CC [SN-38]
- IC50 (in words) [1]: picomolar to low nanomolar range

SMILES: CCN1CCN(Cc2ccc(Nc3ncc(F)c(-c4cc(F)c5nc(C)n(C(C)C)c5c4)n3)nc2)CC1 [abemaciclib]
- EC50 fold improvement (IC50 fold change of drug partner) (HD-MB03 cells [4]): 12.8 fold

SMILES: CC(=O)c1c(C)c2cnc(Nc3ccc(N4CCNCC4)cn3)nc2n(C2CCCC2)c1=O [palbociclib]
- EC50 fold improvement (IC50 fold change of drug partner) (HD-MB03 cells [4]): 30.5 fold

SMILES: CC1(C)OCCn2c1nc1c(N3CCOCC3)nc(-c3cnc(N)nc3)nc12 [paxalisib]
- Median survival ([5]; 10 mg/kg): 27 days
- Median survival [6]: 33.5 days
- body weight and body condition ([7]; MB bearing mice, paxalisib 10mg/kg alone or with ribociclib 100mg/kg): severe weight loss and had poor body condition
- Median survival ([8]; 10 mg/kg): 46 days
- maximum tolerated dose [9]: 45 mg/day

SMILES: CN(C)C(=O)c1cc2cnc(Nc3ccc(N4CCNCC4)cn3)nc2n1C1CCCC1 [ribociclib]
- IC20 (HD-MB03 cells [2]; Homo sapiens, HD-MB03): 5000 nM
- MYC, CYCLIN E, p27KIP1 protein expression [10]: increased expression of MYC and CYCLIN E proteins
- Median survival ([5]; 100 mg/kg): 25 days
- complete blood counts (in words) ([7]; MB002-bearing mice, ribociclib 100mg/kg, JQ1 50mg/kg daily): mild leukopenia
- EC50 fold improvement (IC50 fold change of drug partner) (HD-MB03 cells [4]; Fig. 2D, 0.132μM JQ1 anchor, HD-MB03): 7.8 fold
- Median survival ([8]; 100 mg/kg): 71.5 days
